Measured values: the supplement of paper PMC10307832

How the values were obtained:
Experiment in all cases: relative viability (nuclei count vs DMSO), 5 days (fraction); higher = more cells survive
Motesanib + Palbociclib = compound: CC1(C)CNc2cc(NC(=O)c3cccnc3NCc3ccncc3)ccc21 [Motesanib] + CC(=O)c1c(C)c2cnc(Nc3ccc(N4CCNCC4)cn3)nc2n(C2CCCC2)c1=O [Palbociclib] (partner 0.5 µM)
Outline: (§1)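 Lung cancer cell lines, seeded in 1536-well plates, were treated the following day by pin tool with a single drug or with five library-drug doses (not always all listed) in √10 steps on top of a fixed anchor-drug dose. Cells were fixed and nuclei stained in one step after 5 days, and nuclei were counted. Relative viability is the nuclei count for treated wells divided by that for vehicle wells, reported as medians of duplicate plates.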

[1] = compound: C[C@@]1(C(=O)Nc2ccc(F)nc2)CCCN1c1nc(Nc2cc(C3CC3)n[nH]2)c2cccn2n1 + Nc1ncn([C@H]2C[C@H](O)[C@@H](CO)O2)c(=O)n1 [Decitabine] (partner 2 µM)
Outline: as §1

Motesanib + Pemetrexed = compound: CC1(C)CNc2cc(NC(=O)c3cccnc3NCc3ccncc3)ccc21 [Motesanib] + Nc1nc2[nH]cc(CCc3ccc(C(=O)N[C@@H](CCC(=O)O)C(=O)O)cc3)c2c(=O)[nH]1 [Pemetrexed] (partner 0.2 µM)
Outline: as §1

[2] = compound: C[C@@]1(C(=O)Nc2ccc(F)nc2)CCCN1c1nc(Nc2cc(C3CC3)n[nH]2)c2cccn2n1 + Cc1nc(NC(=O)N2CCC[C@H]2C(N)=O)sc1-c1ccnc(C(C)(C)C(F)(F)F)c1 [Alpelisib] (partner 2 µM)
Outline: as §1

Cell Line | relative viability (Motesanib + Palbociclib; first compound 0.01 µM) | relative viability (Motesanib + Palbociclib; first compound 0.03162 µM) | relative viability (Motesanib + Palbociclib; first compound 0.1 µM) | relative viability (Motesanib + Palbociclib; first compound 0.3162 µM) | relative viability (Motesanib + Palbociclib; first compound 1 µM) | relative viability ([1]; first compound 0.04 µM) | relative viability ([1]; first compound 0.1265 µM) | relative viability ([1]; first compound 0.4 µM) | relative viability ([1]; first compound 1.265 µM) | relative viability (Motesanib + Pemetrexed; first compound 0.01 µM) | relative viability (Motesanib + Pemetrexed; first compound 0.03162 µM) | relative viability (Motesanib + Pemetrexed; first compound 0.1 µM) | relative viability (Motesanib + Pemetrexed; first compound 0.3162 µM) | relative viability (Motesanib + Pemetrexed; first compound 1 µM) | relative viability ([2]; first compound 0.04 µM) | relative viability ([2]; first compound 0.1265 µM) | relative viability ([2]; first compound 0.4 µM) | relative viability ([2]; first compound 1.265 µM)
NCI-H1975 | 0.53 | 0.508 | 0.507 | 0.565 | 0.617 | 0.38 | 0.388 | 0.319 | 0.303 | 0.283 | 0.281 | 0.274 | 0.271 | 0.239 | 0.638 | 0.553 | 0.472 | 0.482
CAL-12T | 0.418 | 0.524 | 0.347 | 0.415 | 0.563 | – | – | – | – | 1.17 | 1.17 | 1.19 | 1.16 | 1.08 | 1.16 | 1.14 | 0.762 | 0.953
HCC-44 | 0.945 | 0.944 | 1.02 | 0.972 | 0.942 | 0.957 | 0.949 | 0.811 | 0.84 | 0.656 | 0.653 | 0.788 | 0.724 | 0.605 | 0.666 | 0.698 | 0.552 | 0.783
EKVX | 0.415 | 0.347 | 0.378 | 0.36 | 0.398 | 0.29 | 0.246 | 0.357 | 0.288 | 0.414 | 0.377 | 0.368 | 0.394 | 0.406 | 0.837 | 0.672 | 0.581 | 0.666
NCI-H1651 | 0.528 | 0.523 | 0.538 | 0.508 | 0.513 | 0.567 | 0.527 | 0.565 | 0.45 | 0.544 | 0.618 | 0.519 | 0.531 | 0.585 | 0.86 | 0.785 | 0.779 | 0.904
NCI-H1944 | 0.352 | 0.328 | 0.334 | 0.302 | 0.326 | 0.372 | 0.377 | 0.376 | 0.386 | 0.58 | 0.628 | 0.565 | 0.554 | 0.442 | 0.72 | 0.657 | 0.669 | 0.834
NCI-H1703 | – | – | – | – | – | – | – | – | – | – | – | – | – | – | 0.485 | 0.266 | 0.28 | 0.3
Calu-6 | – | – | – | – | – | – | – | – | – | – | – | – | – | – | 1.05 | 0.932 | 0.888 | 0.455
EBC-1 | – | – | – | – | – | – | – | – | – | – | – | – | – | – | 1.04 | 0.608 | 0.642 | 0.431
SW 1573 | 0.321 | 0.385 | 0.498 | 0.38 | 0.444 | 0.465 | 0.413 | 0.429 | 0.177 | 0.764 | 0.833 | 0.864 | 0.882 | 0.854 | 0.802 | 0.518 | 0.523 | 0.715
A-427 | 0.527 | 0.506 | 0.512 | 0.526 | 0.549 | 0.514 | 0.413 | 0.489 | 0.501 | 0.963 | 0.912 | 0.963 | 0.992 | 0.972 | 1.08 | 1.09 | 1.03 | 1.16
NCI-H2347 | 0.452 | 0.428 | 0.404 | 0.469 | 0.437 | 0.571 | 0.574 | 0.487 | 0.599 | 0.396 | 0.406 | 0.387 | 0.447 | 0.364 | 1.17 | 0.873 | 0.94 | 1.11
NCI-H1355 | 0.429 | 0.413 | 0.397 | 0.392 | 0.38 | 0.388 | 0.313 | 0.337 | 0.352 | 1.06 | 1.04 | 1.05 | 1.07 | 0.991 | 0.816 | 0.758 | 0.613 | 0.868
NCI-H358 | 0.142 | 0.133 | 0.132 | 0.161 | 0.13 | 0.212 | 0.146 | 0.165 | 0.116 | 0.161 | 0.162 | 0.169 | 0.164 | 0.166 | 0.505 | 0.427 | 0.344 | 0.406
PC-3 [JPC-3] | 0.558 | 0.544 | 0.568 | 0.605 | 0.559 | 0.786 | 0.608 | 0.804 | 0.766 | 1.02 | 1.04 | 1.04 | 1.03 | 0.974 | 1.06 | 0.945 | 0.893 | 0.974
NCI-H2228 | 0.664 | 0.8 | 0.589 | 0.937 | 0.613 | – | – | – | – | 0.366 | 0.292 | 0.254 | 0.191 | 0.241 | 0.709 | 0.518 | 0.533 | 0.529
HOP-62 | 0.451 | 0.43 | 0.499 | 0.51 | 0.494 | 0.181 | 0.203 | 0.224 | 0.173 | 0.288 | 0.296 | 0.214 | 0.209 | 0.173 | 1.04 | 0.843 | 0.897 | 1.11
HARA | 0.281 | 0.211 | 0.282 | 0.253 | 0.315 | 0.445 | 0.436 | 0.418 | 0.513 | 0.194 | 0.207 | 0.128 | 0.185 | 0.212 | 0.73 | 0.681 | 0.569 | 0.697
NCI-H838 | 0.204 | 0.203 | 0.213 | 0.198 | 0.241 | 0.461 | 0.467 | 0.395 | 0.335 | 0.23 | 0.248 | 0.26 | 0.231 | 0.239 | 1.05 | 0.819 | 0.815 | 0.982
NCI-H1755 | 0.459 | 0.46 | 0.487 | 0.477 | 0.48 | 0.698 | 0.687 | 0.704 | 0.74 | 0.403 | 0.356 | 0.38 | 0.401 | 0.32 | 0.91 | 0.746 | 0.806 | 0.999
